Structures can show the parent of a compound that is named as a salt.

The test deals with Human U937 (cell line) PDE-IV enzime. The test can be described thus: Cyclic nucleotide phosphodiesterase (PDE-IV) enzyme inhibition, two-step [3H]cAMP procedure. The test is classed as biochemical. To be noted: [3H]cAMP substrate, 30 °C for 30 min, Tris buffer pH=7.6. On the procedure:
Cyclic nucleotide phosphodiesterase activity is measured by a two-step procedure. […] The reaction is initiated by addition of the substrate. […] After cooling the tubes, 50µl of Crotalux atrox (0.5 mg/ml dest. water) is added and the samples are incubated and shaked for 30 min at 37°C. […] The mixture of 500 µl supernatant and 5 ml of liquid scintillation cocktail is measured to determine the amount of formed ^3H adenosine.
For orientation: IC50 means the concentration that inhibits the measured activity by half. Higher therefore signals lower potency. Regarding `CCOc1ccc(/C=C2\NCCc3cc(OCC)c(OCC)cc32)cc1OCC` [drotaverin hydrochloride, reference compound], half-maximal inhibition (IC50) was put at 4.7 µM. Next, “drotaverin-saccharimide ethanolate [Example 1]”: 3.8 µM; `CCOc1ccc(C=C2NCCc3cc(OCC)c(OCC)cc32)cc1OCC` [Example 2, drotaverin cyclamate]: 1 µM.

The values are drawn from patent publication EP1003557B1, “NEW SALTS WITH BENEFICIAL ORGANOLEPTIC PROPERTIES” (CHINOIN Gyogyszer és Vegyészeti Termékek Gyára RT., priority 1997, dated 1999).
